Test results reported in US12503485B2, “Human aminosterol ENT-03 compounds, related compositions comprising the same, and methods of using the same” (Enterin, Inc., priority 2019, dated 2025).

What was measured:
PTPN11/SHP2-FL (E76K) = biological target: T1, PTPN11/SHP2-FL (E76K) (Homo sapiens, UniProt Q06124, E76K); assay: Phosphatase assay PTPN11/SHP2-FL (E76K)
T1 sequence (Q06124 2-597 isoform Q06124-1 E76K): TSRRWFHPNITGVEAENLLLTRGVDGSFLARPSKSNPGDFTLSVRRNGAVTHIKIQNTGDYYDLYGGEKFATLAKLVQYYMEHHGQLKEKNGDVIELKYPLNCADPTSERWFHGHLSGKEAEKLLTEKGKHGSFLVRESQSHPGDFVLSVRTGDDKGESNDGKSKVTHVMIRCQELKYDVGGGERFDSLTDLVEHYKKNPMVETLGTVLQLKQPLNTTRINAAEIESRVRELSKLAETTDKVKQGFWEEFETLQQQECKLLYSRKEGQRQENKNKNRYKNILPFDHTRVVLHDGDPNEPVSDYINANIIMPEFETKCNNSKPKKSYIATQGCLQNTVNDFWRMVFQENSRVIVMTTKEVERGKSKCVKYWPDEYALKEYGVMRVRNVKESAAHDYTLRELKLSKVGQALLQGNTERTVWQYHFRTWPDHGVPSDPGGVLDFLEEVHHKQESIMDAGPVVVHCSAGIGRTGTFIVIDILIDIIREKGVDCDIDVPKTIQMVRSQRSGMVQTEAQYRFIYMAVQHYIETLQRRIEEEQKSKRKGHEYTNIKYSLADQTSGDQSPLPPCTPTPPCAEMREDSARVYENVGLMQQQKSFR

RXR/NURR1 = conditions: Ogundare et al., 2010; cited from earlier work
FXR = FXR (Homo sapiens, UniProt Q96RI1); conditions: Ogundare et al., 2010; cited from earlier work
Chain of FXR (Q96RI1 whole entry, species assumed): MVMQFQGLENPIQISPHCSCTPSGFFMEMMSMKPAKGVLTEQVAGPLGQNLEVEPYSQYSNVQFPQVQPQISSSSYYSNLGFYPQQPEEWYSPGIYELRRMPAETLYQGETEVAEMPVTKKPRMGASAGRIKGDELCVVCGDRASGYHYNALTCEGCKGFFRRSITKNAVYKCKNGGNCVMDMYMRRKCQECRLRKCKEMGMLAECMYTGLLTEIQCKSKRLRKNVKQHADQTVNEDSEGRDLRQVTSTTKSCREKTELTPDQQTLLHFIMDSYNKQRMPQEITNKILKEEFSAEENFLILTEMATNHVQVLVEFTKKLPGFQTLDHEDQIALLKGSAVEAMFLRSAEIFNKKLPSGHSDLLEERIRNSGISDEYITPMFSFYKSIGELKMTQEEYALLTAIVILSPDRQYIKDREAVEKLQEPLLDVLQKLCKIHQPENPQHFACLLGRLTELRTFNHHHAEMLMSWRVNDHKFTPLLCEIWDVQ

LXR = conditions: Ogundare et al., 2010; cited from earlier work
[1] = tested on: stomach tissues gene expression; assay: Stomach RNA-sequencing, effect size evaluation of treatment contrasts; assay type: in vivo, mice
Description: (§1) Male C57Bl/6 mice, aged 20 and 78 weeks, were obtained from Jackson labs. Animals were exposed to 12 hr light dark cycles and provided Teklad standard mouse diet and water ad lib.
(§2) Animals were dosed once daily by oral gavage in the morning for a total of 14 days. Animals were fasted 3-4 hours prior to dosing and at least 1 hour following dosing, with fasting not to exceed 6 hours. The test article was dissolved in 0.5% hydroxypropylcellulose in water. On day 15 the animals were euthanized by CO2 asphyxiation, necropsied, and tissues prepared for histology and RNAseq analysis.
Samples of stomach tissues from the mice were analysed by RNA-sequencing on an Illumina platform.
A four-fold change in expression between groups was used as a measure of pseudo-significance in the absence of replicate samples. At this threshold, differentially expressed genes were identified in all contrasts. […]

stomach mRNA = assay: Stomach transcriptome (RNAseq) after oral ENT-01 in old mice; assay type: in vivo; conditions: old mice after treatment
Description: as §1, §2
The GI tracts of the animals were sectioned into stomach, duodenum, jejunum, ileum, caecum, colon, and rectum. The tissues were then sent for histology, and the transcriptomes analyzed by RNAseq.

[2] = Body weight of mice after i.p. deuterated ENT-03; assay type: in vivo
Text: The presence of the deuterium on the side chain likely slows the action of the 2-methylacyl-coenzyme A racemase on C-25, the subsequent action of the dehydrogenase that produces the 24,25-trans-unsaturated derivative by removing the deuterium atoms at C24 and C25, and the subsequent hydration and oxidation at the C24 bond catalyzed by the D-bifunctional protein. Instead, the metabolism of ENT-03D3 will begin with the oxidation at C24 by CYP46A1, yielding the following compound: […]

PTPN11/SHP2 = PTPN11/SHP2 (Homo sapiens, UniProt Q06124); assay: Phosphatase assay PTPN11/SHP2; assay type: biochemical; conditions: Table 2C; read-out: Compound IC50 (M) PTPN11/SHP2
Chain of PTPN11/SHP2 (Q06124 whole entry): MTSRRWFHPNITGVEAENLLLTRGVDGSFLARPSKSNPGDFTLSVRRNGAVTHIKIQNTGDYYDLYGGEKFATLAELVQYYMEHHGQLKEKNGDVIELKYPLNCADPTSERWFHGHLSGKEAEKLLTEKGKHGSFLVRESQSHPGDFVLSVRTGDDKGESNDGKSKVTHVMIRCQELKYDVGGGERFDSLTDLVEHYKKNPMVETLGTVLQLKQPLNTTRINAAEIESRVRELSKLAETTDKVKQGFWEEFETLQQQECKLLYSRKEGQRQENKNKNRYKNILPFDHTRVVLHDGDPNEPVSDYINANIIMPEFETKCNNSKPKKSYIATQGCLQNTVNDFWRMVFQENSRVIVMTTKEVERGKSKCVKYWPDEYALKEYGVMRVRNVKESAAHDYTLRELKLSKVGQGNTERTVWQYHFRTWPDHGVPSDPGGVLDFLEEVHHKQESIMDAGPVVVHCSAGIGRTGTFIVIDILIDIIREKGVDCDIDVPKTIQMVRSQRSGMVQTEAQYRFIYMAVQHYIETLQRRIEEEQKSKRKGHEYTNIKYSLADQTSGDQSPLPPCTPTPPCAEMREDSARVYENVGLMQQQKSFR

PP1A = biological target: T2, PP1A (Homo sapiens, UniProt P62136); assay: Phosphatase assay PP1A (DiFMUP fluorescence); assay type: biochemical
T2 construct: purchased Recation Biology Inc
T2 sequence (P62136 whole entry): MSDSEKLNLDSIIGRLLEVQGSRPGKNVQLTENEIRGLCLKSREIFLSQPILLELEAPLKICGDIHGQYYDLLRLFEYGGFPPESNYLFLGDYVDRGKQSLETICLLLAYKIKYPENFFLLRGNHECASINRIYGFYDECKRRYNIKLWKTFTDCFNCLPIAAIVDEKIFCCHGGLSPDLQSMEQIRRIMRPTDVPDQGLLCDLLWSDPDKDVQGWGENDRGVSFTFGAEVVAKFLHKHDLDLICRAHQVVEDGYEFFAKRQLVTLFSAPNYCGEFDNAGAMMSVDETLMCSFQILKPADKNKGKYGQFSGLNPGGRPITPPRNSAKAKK

PP1B = biological target: T3, PP1B (Homo sapiens, UniProt P62140); assay: Phosphatase assay PP1B (DiFMUP fluorescence); assay type: biochemical
T3 construct: purchased Recation Biology Inc
T3 sequence (P62140 whole entry): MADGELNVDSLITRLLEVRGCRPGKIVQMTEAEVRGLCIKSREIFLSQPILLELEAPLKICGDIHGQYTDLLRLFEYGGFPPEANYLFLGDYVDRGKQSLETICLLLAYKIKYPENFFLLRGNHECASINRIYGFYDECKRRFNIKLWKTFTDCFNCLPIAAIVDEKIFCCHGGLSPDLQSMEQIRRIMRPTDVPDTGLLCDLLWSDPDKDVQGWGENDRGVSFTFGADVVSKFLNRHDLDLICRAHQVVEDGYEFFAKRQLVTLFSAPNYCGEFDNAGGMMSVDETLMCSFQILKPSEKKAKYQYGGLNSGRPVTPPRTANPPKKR

PTPN2/TC-PTP = biological target: T4, PTPN2/TC-PTP (Homo sapiens, UniProt P17706); assay: Phosphatase assay PTPN2/TC-PTP; assay type: biochemical
T4 construct: purchased Recation Biology Inc
T4 sequence (P17706 1-415): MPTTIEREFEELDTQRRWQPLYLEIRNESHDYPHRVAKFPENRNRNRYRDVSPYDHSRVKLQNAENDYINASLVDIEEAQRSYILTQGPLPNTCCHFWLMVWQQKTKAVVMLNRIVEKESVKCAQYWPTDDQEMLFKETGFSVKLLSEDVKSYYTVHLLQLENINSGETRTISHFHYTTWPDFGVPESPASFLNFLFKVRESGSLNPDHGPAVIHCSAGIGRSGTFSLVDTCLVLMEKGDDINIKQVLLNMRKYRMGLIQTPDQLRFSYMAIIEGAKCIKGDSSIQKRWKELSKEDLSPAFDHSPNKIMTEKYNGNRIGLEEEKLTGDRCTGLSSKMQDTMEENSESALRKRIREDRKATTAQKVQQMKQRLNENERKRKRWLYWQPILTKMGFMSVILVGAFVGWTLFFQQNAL

PTPN6/SHP1 = biological target: T5, PTPN6/SHP1 (Homo sapiens, UniProt P29350); assay: Phosphatase assay PTPN6/SHP1; assay type: biochemical
T5 construct: purchased Recation Biology Inc
T5 sequence (P29350 whole entry): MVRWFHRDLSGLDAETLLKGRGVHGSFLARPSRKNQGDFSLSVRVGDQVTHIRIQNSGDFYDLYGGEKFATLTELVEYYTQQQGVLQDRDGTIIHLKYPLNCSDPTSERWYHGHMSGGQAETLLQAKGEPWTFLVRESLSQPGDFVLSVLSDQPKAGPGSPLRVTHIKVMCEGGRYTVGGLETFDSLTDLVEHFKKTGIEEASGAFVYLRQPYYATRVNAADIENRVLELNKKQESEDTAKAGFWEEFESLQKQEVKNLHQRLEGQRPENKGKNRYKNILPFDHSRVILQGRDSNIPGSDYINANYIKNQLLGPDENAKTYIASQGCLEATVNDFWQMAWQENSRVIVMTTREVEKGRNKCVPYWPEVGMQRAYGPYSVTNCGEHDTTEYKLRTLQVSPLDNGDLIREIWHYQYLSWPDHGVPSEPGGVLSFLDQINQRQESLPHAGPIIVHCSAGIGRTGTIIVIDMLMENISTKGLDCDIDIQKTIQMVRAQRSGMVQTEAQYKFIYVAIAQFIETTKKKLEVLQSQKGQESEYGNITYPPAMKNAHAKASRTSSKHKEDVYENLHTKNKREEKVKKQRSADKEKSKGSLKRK

[3] = biological target: T6, PP2A Alpha/PP2R1A Complex (Homo sapiens, UniProt P67775); assay: Phosphatase assay PP2A Alpha/PP2R1A Complex; assay type: biochemical
T6 construct: purchased Recation Biology Inc
T6 sequence (P67775 whole entry): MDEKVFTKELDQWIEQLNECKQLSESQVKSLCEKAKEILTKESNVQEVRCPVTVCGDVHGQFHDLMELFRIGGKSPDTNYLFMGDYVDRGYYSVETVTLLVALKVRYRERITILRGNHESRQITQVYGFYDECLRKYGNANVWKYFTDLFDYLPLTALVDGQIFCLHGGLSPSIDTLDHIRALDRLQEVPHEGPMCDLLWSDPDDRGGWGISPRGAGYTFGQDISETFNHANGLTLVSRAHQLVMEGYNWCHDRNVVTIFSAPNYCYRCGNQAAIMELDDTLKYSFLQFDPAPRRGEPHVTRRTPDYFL
T6 sequence (P30153 whole entry partner): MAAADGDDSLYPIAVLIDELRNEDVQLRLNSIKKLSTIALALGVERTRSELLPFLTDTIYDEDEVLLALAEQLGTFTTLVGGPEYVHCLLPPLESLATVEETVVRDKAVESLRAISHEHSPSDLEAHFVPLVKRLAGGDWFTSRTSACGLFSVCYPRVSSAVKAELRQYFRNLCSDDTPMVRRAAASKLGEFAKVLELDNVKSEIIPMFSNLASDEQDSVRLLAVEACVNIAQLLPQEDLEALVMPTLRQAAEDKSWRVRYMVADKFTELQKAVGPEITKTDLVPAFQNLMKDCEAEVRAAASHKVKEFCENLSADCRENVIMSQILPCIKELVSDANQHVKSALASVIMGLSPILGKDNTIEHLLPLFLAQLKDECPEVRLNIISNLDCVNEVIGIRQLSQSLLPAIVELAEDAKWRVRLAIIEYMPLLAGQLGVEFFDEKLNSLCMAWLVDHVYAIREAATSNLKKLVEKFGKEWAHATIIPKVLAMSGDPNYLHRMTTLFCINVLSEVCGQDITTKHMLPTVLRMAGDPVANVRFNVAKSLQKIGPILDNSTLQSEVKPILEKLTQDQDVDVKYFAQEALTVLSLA

## CC(CCCC(C)C1CCC2C3C(O)CC4CC(NCCCNCCCCN)CCC4(C)C3CC(O)C12C)C(=O)O (single isomer, unassigned) [ENT-05]
PTPN11/SHP2-FL (E76K)
  IC50: 0.043 µM

## C[C@H](CCC[C@@H](C)[C@H]1CCC2C3C(CC[C@@]21C)[C@@]1(C)CCC(=O)C=C1C[C@H]3O)C(=O)O (stereo partly drawn) [7-HOCA, 7-alpha hydroxy-3-oxo-4-cholestenoic acid]
RXR/NURR1
  activation of RXR/NURR1 receptors: did not activate
FXR
  activation of FXR receptor: did not activate
LXR
  activation of LXR receptor: did not activate

## CC(C)[C@@H](CC[C@@H](C)[C@H]1CC[C@H]2[C@@H]3[C@H](O)C[C@H]4C[C@@H](NCCCNCCCCN)CC[C@]4(C)[C@H]3CC[C@]12C)OS(=O)(=O)O (single isomer, unassigned) [ENT-01, squalamine phosphate]
[1]; Old vs young, both treated
  number of significant features, Down-regulated, fold change threshold 1.3×: 1606
  number of significant features, Down-regulated, fold change threshold 2×: 267
  number of significant features, Down-regulated, fold change threshold 4×: 69
  number of significant features, Down-regulated, fold change threshold 8×: 36
  number of significant features, Down-regulated, fold change threshold 16×: 27
  number of significant features, Down-regulated, fold change threshold Any: 7534
  number of significant features, Up-regulated, fold change threshold 1.3×: 1647
  number of significant features, Up-regulated, fold change threshold 2×: 559
  number of significant features, Up-regulated, fold change threshold 4×: 263
  number of significant features, Up-regulated, fold change threshold 8×: 178
  number of significant features, Up-regulated, fold change threshold 16×: 135
  number of significant features, Up-regulated, fold change threshold Any: 7479
[1]; treatment vs control (old)
  number of significant features, Down-regulated, fold change threshold 1.3×: 2235
  number of significant features, Down-regulated, fold change threshold 2×: 431
  number of significant features, Down-regulated, fold change threshold 4×: 66
  number of significant features, Down-regulated, fold change threshold 8×: 25
  number of significant features, Down-regulated, fold change threshold 16×: 11
  number of significant features, Down-regulated, fold change threshold Any: 7460
  number of significant features, Up-regulated, fold change threshold 1.3×: 2430
  number of significant features, Up-regulated, fold change threshold 2×: 766
  number of significant features, Up-regulated, fold change threshold 4×: 317
  number of significant features, Up-regulated, fold change threshold 8×: 168
  number of significant features, Up-regulated, fold change threshold 16×: 116
  number of significant features, Up-regulated, fold change threshold Any: 7553
[1]; treatment vs control (young)
  number of significant features, Down-regulated, fold change threshold 1.3×: 2367
  number of significant features, Down-regulated, fold change threshold 2×: 642
  number of significant features, Down-regulated, fold change threshold 4×: 144
  number of significant features, Down-regulated, fold change threshold 8×: 47
  number of significant features, Down-regulated, fold change threshold 16×: 12
  number of significant features, Down-regulated, fold change threshold Any: 7553
  number of significant features, Up-regulated, fold change threshold 1.3×: 1430
  number of significant features, Up-regulated, fold change threshold 2×: 232
  number of significant features, Up-regulated, fold change threshold 4×: 58
  number of significant features, Up-regulated, fold change threshold 8×: 38
  number of significant features, Up-regulated, fold change threshold 16×: 28
  number of significant features, Up-regulated, fold change threshold Any: 7460
Stomach mRNA
  mRNA levels for all of the genes in Table 5A, in words: significant increase

## [2H]C([2H])(CCC(C)C1CCC2C3C(O)CC4CC(NCCCNCCCCNCCCN)CCC4(C)C3CCC12C)C([2H])(C)C(=O)O (stereo not drawn) [ENT-03D3]
[2]
  effect on body weight, in words: gained weight

## CCc1oc2cc(S(=O)(=O)Nc3ccc(S(=O)(=O)Nc4nccs4)cc3)ccc2c1C(=O)c1cc(Br)c(O)c(Br)c1 [PTP1B Inhibitor, 3-(3,5-Dibromo-4-hydroxy-benzoyl)-2-ethyl-benzofuran-6-sulfonicacid-(4-(thiazol-2-ylsulfamyl)-phenyl)-amide]
PTPN11/SHP2
  IC50: 1.82e-06 M

## CC(CCCC(C)C1CCC2C3C(O)CC4CC(NCCCNCCCCN)CCC4(C)C3CCC12C)C(=O)O (single isomer, unassigned) [ENT-06]
PP1A
  activity at PP1A, in words: inactive
PP1B
  activity at PP1B, in words: inactive
PTPN2/TC-PTP
  activity at PTPN2, in words: inactive
PTPN6/SHP1
  activity at PTPN6/SHP1, in words: inactive
[3]
  activity at PP2A alpha, in words: inactive
PTPN11/SHP2-FL (E76K)
  IC50: 0.345 µM
